Assay results as given in patent US8609695B2, “Methods of treating and/or suppressing insulin resistance” (Endorecherche, Inc., priority 1999, dated 2013).
Structures can show the parent of a compound that is named as a salt.

Legend:
[1] = test system: human endometrial adenocarcinoma Ishikawa cells; assay: Alkaline phosphatase activity in Ishikawa cells (Example 11); type: cell-based; details: for IC50: Homo sapiens, Ishikawa, 120 h, read-out: Inhibition of 1 nM E2 stimulation of alkaline phosphatase by tested compounds IC50; for Stimulation of alkaline phosphatase by tested compounds % of 1 nM E2 stimulation: intrinsic estrogenic activity
Experimental: The human Ishikawa cell line derived from a well differentiated endometrial adenocarcinoma was kindly provided by Dr. Erlio Gurpide, The Mount Sinai Medical Center, New York, N.Y. The Ishikawa cells were routinely maintained in Eagle's Minimum Essential Medium (MEM) containing 5% (vol/vol) FBS and supplemented with 100 U/ml penicillin, 100 μg/ml streptomycin, 0.1 mM Non-essential Amino Acids solution. Cells were plated in Falcon T75 flasks at a density of 1.5×10^6 cells at 37 C.
Twenty four hours before the start of an experiment, the medium of near confluent Ishikawa cells was replaced by fresh estrogen-free basal medium (EFBM) consisting of a 1:1 (v:v) mixture of phenol red-free Ham's F-12 and Dulbecco's Modified Eagle's Medium (DMEM) supplemented with 100 U/mL penicillin, 100 μg/mL Streptomycin, 2 mM glutamine, and 5% FBS treated twice with dextran-coated charcoal to remove endogenous steroids. Cells were then harvested by 0.1% pancreatin (Sigma) and 0.25 mM HEPES, resuspended in EFBM and plated in Falcon 96 well flat-bottomed microtiter plates at a density of 2.2×10^4 cells/well in a volume of 100 μl and allowed to adhere to the surface of the plates for 24 h. Thereafter, medium was replaced with fresh EFBM containing the indicated concentrations of compounds in a final volume of 200 μl. Cells were incubated for five days, with a medium change after 48 h.
At the end of the incubation period, microtiter plates were inverted and growth medium was decanted. The plates were rinsed with 200 μL by well of PBS (0.15M NaCl, 10 mM sodium phosphate, pH 7.4). PBS was then removed from the plates while carefully leaving some residual PBS, and the wash procedure was repeated once. The buffered saline was then decanted, and the inverted plates were blotted gently on a paper towel. Following replacement of the covers, the plates were placed at −80 C for 15 min followed by thawing at room temperature for 10 min. The plates were then placed on ice, and 50 μl of an ice-cold solution containing 5 mM p-nitrophenyl phosphate, 0.24 mM MgCl2, and 1 M diethanolamine (pH 9.8) was added. Plates were then warmed to room temperature, and the yellow color from the production of p-nitrophenyl was allowed to develop (8 min). Plates were monitored at 405 nm in an enzyme-linked immunosorbent assay plate reader (BIO-RAD, model 2550 EIA Reader).
Dose-response curves as well as IC50 values were calculated using a weighted iterative nonlinear squares regression.

[2] = test system: ovariectomized female rats; assay: 34-week treatment with ethynyl estradiol, EM-652.HCl, Raloxifene and DHEA, body fat (Example 7); type: in vivo, rat; details: OVX rats, 34 weeks
Experimental: The objective of this study was to assess the effect of a combined treatment with EM-652.HCl, and DHEA on body fat and body weight parameters in ovariectomized rats. For this purpose, ovariectomized rats received daily administration of EM-652.HCl (1 mg/kg), and DHEA (80 mg/kg) alone or in combination, for 34 weeks. EM-652.HCl was administered orally while DHEA was applied topically on dorsal skin. One group of animals was orally treated with 17-ethynylestradiol (0.1 mg/kg) and Raloxifene (EM-1105; 1 mg/kg) for comparison.
Ten to twelve week-old female Sprague-Dawley rats (Crl:CD(SD)Br) weighing approximately 235-250 g at start of treatment were used. Eighty rats were randomly distributed between 7 groups of 11 to 12 animals per group as follows: 1) Intact control; 2) OVX control; 3) OVX+EE2 (0.1 mg/kg); 4) OVX+raloxifene (1 mg/kg); 5) OVX+EM-652.HCl (1 mg/kg); 6) OVX+DHEA (80 mg/kg); 7) OVX+EM-652.HCl+DHEA. On day 1 of the study, the animals of the appropriate groups were bilaterally ovariectomized (OVX) under isoflurane anesthesia. EM-652.HCl, raloxifene and EE2 (Steraloids) were administered once daily by oral gavage as suspension in 0.4% methylcellulose (0.5 ml/rat) for 34 weeks while DHEA was applied topically once daily on dorsal skin as a solution in 50% ethanol-50% propylene glycol (0.5 ml/rat) for the same time period. Approximately 24 hours after the last dosing, overnight fasted animals were killed by exsanguination at the abdominal aorta under isoflurane anesthesia. Left and right retroperitoneal adipose tissues were collected and weighed.
After 34 weeks of treatment, individual rats under anesthesia with isoflurane had their whole body skeleton scanned using dual energy x-ray absorptiometry (DEXA; QDR 4500A, Hologic, Waltham, Mass.) and a Regional High Resolution Scan software. The body composition (including fat percentage) was determined.
Data were expressed as the means±SEM.

[3] = test system: ovariectomized female rats; assay: SERM comparison, energy balance and lipid-lipoprotein metabolism (Example 10); type: in vivo, Rattus norvegicus; details: OVX rats, 20 days; for Serum insulin (in words): 0.5 mg/rat; for Brown adipose tissue Lipoprotein lipase activity / Brown adipose tissue weight / Cumulative food intake / Serum glucose / Serum insulin / Serum leptin / Serum total cholesterol / Serum triglycerides / Soleus muscle Lipoprotein lipase activity / Soleus muscle weight / Total weight / VastusLateralis muscle weight / White adipose tissue inguinal Lipoprotein lipase activity / White adipose tissue inguinal weight / White adipose tissue retroperitoneal Lipoprotein lipase activity / White adipose tissue retroperitoneal weight: high carbohydrate diet, 0.5 mg/rat oral gavage
Experimental: For this purpose, tested compounds were administered by oral gavage for 20 days (0.5 mg/rat for each compound; 0.5 ml/rat) in 0.4% methylcellulose to ovariectomized female rats.
d) Diet: • During acclimation period, rats received a certified rodent diet (Lab Diet #5002, pellet) and tap water ad libitum while during study period, they received a high carbonhydrate diet (diet #3) and tap water ad libitum. The diet was composed of (g/100 g): Corn starch, 31.2; Dextrose, 31.2; Casein, 20.0; corn oil, 6.4; dl-Methionine, 0.3; Vitamine mix, 1.0; AIN-76 mineral mix, 4.9; fiber, 5.0. Rats were fasted (with access to water only) around 07 h00 the morning of their necropsy Randomization:
Test group: Seventy-seven rats were assigned to 8 groups of 9-10 rats for conduct of the study outlined below.
On day 0 of the study, rats from group 2 to 8 were ovariectomized (by bilateral flank incision) under Isoflurane anesthesia. Rats from group 1 were sham-operated.
Rats were weighed on day 0 (surgery) and then, every 2 days during study period as well as on the day of necropsy.
Food consumption was evaluated every 2 days.
In order to determine the effect of treatments on fat percentage, body composition was measured on Day 17 of the study using dual energy x-ray absorptiometry (DEXA; QDR 4500A, Hologic, Waltham, Mass.).
On day 21 of the study, approximately 24 hours after the last dosing and 6 hours of fasting, animals under Ketamine-Xylazine anesthesia were killed by exsanguination at the abdominal aorta.
Blood lipids (Total cholesterol and Triglycerides) and glucose were measured on frozen serum samples using the Boehringer Mannheim Diagnostic Hitachi 911 Analyzer (Boehringer Mannheim Diagnostic Laboratory Systems). Circulating hormones and substrates (Insulin and leptin) were measured on serum sample using the following kits: • Insulin: Linco RIA kit • Leptin: Linco RIA kit Organs and Tissues Collected
The following tissues were collected and weighed: • Muscle (right soleus and right VLM), fat (right retroperitoneal and right inguinal), and brown adipose tissue.
A piece of ˜0.1 g of all tissues (except uterus and vagina) were frozen in liquid nitrogen and kept at −80 C for later determination of lipoprotein-lipase (LPL) activity.

[4] = test system: ovariectomized female rats; assay: Uterine weight, fat and lipid, 20-day treatment (Example 13); type: in vivo, Rattus norvegicus; details: 20 days
Experimental: The objective of this study was to compare the effect on uterine, weight, fat and blood lipids following treatment with EM-652.HCl, ERA-923 and lasofoxifene, administered alone or in combination with EM-652.HCl, to ovariectomized female rats. For this purpose, each compound was administered orally for 20 days to ovariectomized female rats and at the end of the treatment period, the uterus and fat were collected and weighed.
d) Diet: • Certified Rodent feed (Lab Diet #5002, pellets) and tap water were provided ad libitum. Randomization:
Seventy rats were separated into 7 groups of 9 to 11 animals for conduct of the study outlined below:
Animals from groups 2 to 9 were ovariectomized under Isoflurane-induced anesthesia on Day 7 of the study.
The vehicle or tested compounds were given as suspension in 0.4% methylcellulose by oral gavage (0.5 ml/gavage/rat) from Day 2 to Day 21 of the study.
Rats were weighed on Study Day 1 and at the necropsy (SD 22).
Approximately 24 hours after the last dosing, overnight fasted rats under Isoflurane-induced anesthesia were killed by exsanguination at the abdominal aorta.
Uteri and retroperitonal adipose tissue were removed and weighed.

[5] = Ishikawa cells, five days incubation
[6] = EE2 0.1, Raloxifene 1, EM-652.HCl 1 mg/kg oral, DHEA 80 mg/kg topical
[7] = OVX rats, commercial rodent diet, 0.5 mg oral, EM-652.HCl 2.5 mg in combinations

Compound: CC/C(=C(/c1ccc(OCCN(C)C)cc1)c1cccc(O)c1)c1ccccc1 [Droloxifene]
- IC50 [1]: 291 ± 115 nM
- Stimulation of alkaline phosphatase by tested compounds % of 1 nM E2 stimulation [1, 5]: 23.8 ± 3.1 (7) % of 1 nM E2 stimulation

Compound: C#C[C@]1(O)CC[C@H]2[C@@H]3CCc4cc(O)ccc4[C@H]3CC[C@@]21C [EE2, 17-ethynylestradiol]
- increment of body fat and retroperitoneal adipose tissue by ovariectomy [2]: prevented
- Fat % ([2]; DEXA, EE2 0.1, Raloxifene 1, EM-652.HCl 1 mg/kg oral, DHEA 80 mg/kg topical): 19.8 ± 1.9%
- Left retroperitoneal adipose tissue [2, 6]: 1.15 ± 0.18 g
- Right retroperitoneal adipose tissue [2, 6]: 1.29 ± 0.22 g

Compound: CC/C(=C(\c1ccccc1)c1ccc(/C=C/C(=O)O)cc1)c1ccccc1 [GW-5638]
- Inhibition of 1 nM E2 stimulation of alkaline phosphatase by tested compounds IC50 ([1]; Ishikawa cells, five days incubation, 1 nM E2, antiestrogenic activity): No inhibition
- Stimulation of alkaline phosphatase by tested compounds % of 1 nM E2 stimulation [1, 5]: 7.75 ± 5.5 (2) % of 1 nM E2 stimulation

Compound: CC/C(=C(\c1ccc(I)cc1)c1ccc(OCCN2CCCC2)cc1)c1ccccc1 [Idoxifene]
- IC50 [1]: > 1000 nM
- Stimulation of alkaline phosphatase by tested compounds % of 1 nM E2 stimulation [1, 5]: 25.1 ± 1.5 (5) % of 1 nM E2 stimulation

Compound: COc1ccc(-c2sc3cc(O)ccc3c2Oc2ccc(OCCN3CCCCC3)cc2)cc1.Cl [LY 353381]
- Serum insulin (in words) [3]: decreased
- Brown adipose tissue Lipoprotein lipase activity [3]: 888 ± 65 μU/g protein
- Brown adipose tissue weight [3]: 0.368 ± 0.031 g
- Cumulative food intake [3]: 312 ± 7 g
- Serum glucose [3]: 17.1 ± 0.7 mmol/L
- Serum insulin [3]: 0.104 ± 0.11 nmol/L
- Serum leptin [3]: 1.22 ± 0.21 ng/mL
- Serum total cholesterol [3]: 1.15 ± 0.08 mmol/L
- Serum triglycerides [3]: 1.23 ± 0.28 mmol/L
- Soleus muscle Lipoprotein lipase activity [3]: 10.1 ± 1.0 μU/g protein
- Soleus muscle weight [3]: 0.092 ± 0.002 g
- Total weight [3]: 231 ± 4 g
- VastusLateralis muscle weight [3]: 0.955 ± 0.20 g
- White adipose tissue inguinal Lipoprotein lipase activity [3]: 559 ± 165 μU/g protein
- White adipose tissue inguinal weight [3]: 0.290 ± 0.038 g
- White adipose tissue retroperitoneal Lipoprotein lipase activity [3]: 1365 ± 119 μU/g protein
- White adipose tissue retroperitoneal weight [3]: 0.968 ± 0.120 g

Compound: Oc1ccc2c(c1)CC[C@H](c1ccccc1)[C@@H]2c1ccc(OCCN2CCCC2)cc1 [Lasofoxifene, cis-1R-[4′-pyrrolidino-ethoxyphenyl]-2S-phenyl-6-hydroxy-1,2,3,4,-tetrahydronapthalene D-(−)-tartrate salt]
- Stimulation of alkaline phosphatase by tested compounds % of 1 nM E2 stimulation [1, 5]: 18 % of 1 nM E2 stimulation
- OVX-induced increase in total serum cholesterol levels ([4]; 0.5 mg): completely prevented
- increase of uterine weight compared to OVX control ([4]; 0.5 mg): 62%
- prevention of body weight increase induced by ovariectomy ([4]; OVX rats, 0.5 mg): 127%
- Cholesterol [4, 7]: 0.95 ± 0.09 mmol/L
- Final Body Weight [4, 7]: 210 ± 3 g
- Uterine Weight [4, 7]: 247.4 ± 9.1 mg
- Serum insulin (in words) [3]: decreased
- Brown adipose tissue Lipoprotein lipase activity [3]: 982 ± 98 μU/g protein
- Brown adipose tissue weight [3]: 0.244 ± 0.022 g
- Cumulative food intake [3]: 283 ± 14 g
- Serum glucose [3]: 15.8 ± 1.3 mmol/L
- Serum insulin [3]: 0.095 ± 0.017 nmol/L
- Serum leptin [3]: 0.97 ± 0.29 ng/mL
- Serum total cholesterol [3]: 1.29 ± 0.06 mmol/L
- Serum triglycerides [3]: 0.81 ± 0.21 mmol/L
- Soleus muscle Lipoprotein lipase activity [3]: 10.9 ± 1.5 μU/g protein
- Soleus muscle weight [3]: 0.096 ± 0.003 g
- Total weight [3]: 210 ± 2 g
- VastusLateralis muscle weight [3]: 0.800 ± 0.048 g
- White adipose tissue inguinal Lipoprotein lipase activity [3]: 801 ± 138 μU/g protein
- White adipose tissue inguinal weight [3]: 0.187 ± 0.023 g
- White adipose tissue retroperitoneal Lipoprotein lipase activity [3]: 1417 ± 163 μU/g protein
- White adipose tissue retroperitoneal weight [3]: 0.867 ± 0.132 g

Compound: CC/C(=C(\c1ccc(O)cc1)c1ccc(OCCN(C)C)cc1)c1ccccc1 [OH-Tamoxifen]
- IC50 [1]: 31.9 ± 6 nM
- Stimulation of alkaline phosphatase by tested compounds % of 1 nM E2 stimulation [1, 5]: 32.4 ± 2.2 (8) % of 1 nM E2 stimulation

Compound: CN(C)CCOc1ccc(/C(=C(/CCCl)c2ccccc2)c2ccc(O)cc2)cc1 [OH-Toremifene]
- Stimulation of alkaline phosphatase by tested compounds % of 1 nM E2 stimulation [1, 5]: 29.6 ± 2.1 (6) % of 1 nM E2 stimulation
